# Experiments:
# [1] = test system: methicillin-susceptible S. aureus (MSSA, 22); experiment: MIC broth microdilution, MSSA; details: for MIC50 / MIC90: Staphylococcus aureus, MSSA; for MIC 50% / MIC 90%: MSSA (22)
# [2] = test system: methicillin-resistant S. aureus (MRSA, 22); experiment: MIC broth microdilution, MRSA; details: for MIC50 / MIC90: Staphylococcus aureus, MRSA; for MIC 50% / MIC 90%: MRSA (22)
# [3] = test system: Staphylococcus epidermidis (43 strains); experiment: MIC broth microdilution, S. epidermidis; details: for MIC50 / MIC90: Staphylococcus epidermidis; for MIC 50% / MIC 90%: S. epidermidis (43)
# [4] = test system: VanA vancomycin-resistant E. faecium (10); experiment: MIC broth microdilution, VanA E. faecium; details: for MIC50 / MIC90: Enterococcus faecium; for MIC 50% / MIC 90%: E. faecium, VanA (10)
# [5] = test system: VanB vancomycin-resistant E. faecium (10); experiment: MIC broth microdilution, VanB E. faecium; details: for MIC50 / MIC90: Enterococcus faecium; for MIC 50% / MIC 90%: E. faecium, VanB (10)
# [6] = test system: VanA vancomycin-resistant E. faecalis (11); experiment: MIC broth microdilution, VanA E. faecalis; details: for MIC50 / MIC90: Enterococcus faecalis; for MIC 50% / MIC 90%: E. faecalis, VanA (11)
# [7] = test system: VanB vancomycin-resistant E. faecalis (12); experiment: MIC broth microdilution, VanB E. faecalis; details: for MIC50 / MIC90: Enterococcus faecalis; for MIC 50% / MIC 90%: E. faecalis, VanB (12)
# [8] = test system: Staphylococcus aureus (65 strains); experiment: MIC broth microdilution, S. aureus all isolates; details: for MIC50 / MIC90: Staphylococcus aureus; for MIC 50% / MIC 90%: S. aureus (65), all resistance subsets
# [9] = test system: VanC enterococci (22); experiment: MIC broth microdilution, vanC-carrying enterococci; details: for MIC 50% / MIC 90%: VanC enterococci (22)
# [10] = test system: vancomycin-susceptible E. faecium (21); experiment: MIC broth microdilution, vancomycin-susceptible E. faecium; details: for MIC50 / MIC90: Enterococcus faecium; for MIC 50% / MIC 90%: E. faecium, vancomycin-susceptible (21)
# [11] = test system: vancomycin-susceptible E. faecalis (23); experiment: MIC broth microdilution, vancomycin-susceptible E. faecalis; details: for MIC50 / MIC90: Enterococcus faecalis; for MIC 50% / MIC 90%: E. faecalis, vancomycin-susceptible (23)
# [12] = test system: E. faecalis; experiment: MIC broth microdilution, E. faecalis regardless of vancomycin susceptibility; details: Enterococcus faecalis
# [13] = test system: vancomycin-intermediate S. aureus (VISA, 5); experiment: MIC broth microdilution, VISA
# [14] = test system: vancomycin-resistant S. aureus (VRSA, 6); experiment: MIC broth microdilution, VRSA
# [15] = test system: heterogeneous VISA (hVISA, 10); experiment: MIC broth microdilution, hVISA
# [16] = test system: S. pneumoniae (22); experiment: MIC broth microdilution, S. pneumoniae; details: S. pneumoniae (22); MHB + lysed horse blood
# [17] = test system: S. aureus ATCC 25923; experiment: Neutropenic murine thigh infection model; details: for AUCc-t (AUC difference between control and treated animals): 24 h time kill
# [18] = test system: β-hemolytic streptococci (23); experiment: MIC broth microdilution, β-hemolytic streptococci; details: for fold more potent than teicoplanin and daptomycin / fold more potent than vancomycin: β-hemolytic streptococci; for MIC 50% / MIC 90%: β-hemolytic streptococci (23), MHB + lysed horse blood
# [19] = 1 mg/kg single intraperitoneal dose
# [20] = 4 mg/kg single intraperitoneal dose
# [21] = 16 mg/kg single intraperitoneal dose
smiles,measurement,setting,value
"CCCCCCCCCC(=O)N[C@@H](Cc1c[nH]c2ccccc12)C(=O)N[C@H](CC(N)=O)C(=O)N[C@@H](CC(=O)O)C(=O)N[C@@H]1C(=O)NCC(=O)N[C@@H](CCCN)C(=O)N[C@@H](CC(=O)O)C(=O)N[C@H](C)C(=O)N[C@@H](CC(=O)O)C(=O)NCC(=O)N[C@H](CO)C(=O)N[C@@H]([C@H](C)CC(=O)O)C(=O)N[C@@H](CC(=O)c2ccccc2N)C(=O)O[C@@H]1C [Daptomycin, reference compound]",MIC50,[1],0.25 µg/mL
same,MIC90,[1],0.5 µg/mL
same,MIC50,[2],0.25 µg/mL
same,MIC90,[2],0.5 µg/mL
same,MIC50,[3],0.25 µg/mL
same,MIC90,[3],0.5 µg/mL
same,MIC50,[4],2 µg/mL
same,MIC90,[4],2 µg/mL
same,MIC50,[5],2 µg/mL
same,MIC90,[5],2 µg/mL
same,MIC50,[6],1 µg/mL
same,MIC90,[6],2 µg/mL
same,MIC50,[7],0.5 µg/mL
same,MIC90,[7],1 µg/mL
same,MIC50,[8],0.25 µg/mL
same,MIC90,[8],1 µg/mL
same,MIC50,[9],1 µg/mL
same,MIC90,[9],2 µg/mL
same,MIC50,[10],2 µg/mL
same,MIC90,[10],2 µg/mL
same,MIC50,[11],1 µg/mL
same,MIC90,[11],2 µg/mL
same,MIC50,[12],0.5 to 1 µg/mL
same,MIC90,[12],1 to 2 µg/mL
"CC(=O)NC[C@H]1CN(c2ccc(N3CCOCC3)c(F)c2)C(=O)O1 [Linezolid, reference compound]",MIC50,[1],1 µg/mL
same,MIC90,[1],1 µg/mL
same,MIC50,[2],1 µg/mL
same,MIC90,[2],1 µg/mL
same,MIC50,[3],0.5 µg/mL
same,MIC90,[3],1 µg/mL
same,MIC50,[4],1 µg/mL
same,MIC90,[4],1 µg/mL
same,MIC50,[5],1 µg/mL
same,MIC90,[5],1 µg/mL
same,MIC50,[6],1 µg/mL
same,MIC90,[6],1 µg/mL
same,MIC50,[7],1 µg/mL
same,MIC90,[7],1 µg/mL
same,MIC50,[8],1 µg/mL
same,MIC90,[8],1 µg/mL
same,MIC50,[9],1 µg/mL
same,MIC90,[9],2 µg/mL
same,MIC50,[10],1 µg/mL
same,MIC90,[10],2 µg/mL
same,MIC50,[11],1 µg/mL
same,MIC90,[11],1 µg/mL
same,MIC50,[12],1 µg/mL
same,MIC90,[12],1 µg/mL
CNC(CC(C)C)C(=O)NC1C(=O)NC(CC(N)=O)C(=O)NC2C(=O)NC3C(=O)NC(C(=O)NC(C(=O)O)c4cc(O)c(CNCCOCCOCCN)c(O)c4-c4cc3ccc4O)C(O)c3ccc(c(Cl)c3)Oc3cc2cc(c3OC2OC(CO)C(O)C(O)C2OC2CC(C)(NCc3ccc(OCc4ccc(Cl)c(Cl)c4)cc3)C(O)C(C)O2)Oc2ccc(cc2Cl)C1O (stereo not shown) [Compound 28],MIC 50%,[1],0.06 µg/mL
same,MIC 90%,[1],0.06 µg/mL
same,MIC 50%,[2],0.06 µg/mL
same,MIC 90%,[2],0.06 µg/mL
same,MIC 50%,[13],0.12 µg/mL
same,MIC 50%,[14],2 µg/mL
same,MIC 50%,[15],0.06 µg/mL
same,MIC 90%,[15],0.06 µg/mL
same,MIC 50%,[16],0.03 µg/mL
same,MIC 90%,[16],0.06 µg/mL
same,MIC 50%,[3],0.03 µg/mL
same,MIC 90%,[3],0.03 µg/mL
same,MIC 50%,[4],0.5 µg/mL
same,MIC 90%,[4],1 µg/mL
same,MIC 50%,[5],0.03 µg/mL
same,MIC 90%,[5],0.06 µg/mL
same,Max Kill (maximum decrease from initial infection level),[17]; [19],0.61 Log10 CFU/thigh
same,AUCc-t (AUC difference between control and treated animals),[17]; [19],19.1 (Log10 CFU/thigh)/hr
same,Max Kill (maximum decrease from initial infection level),[17]; [20],0.75 Log10 CFU/thigh
same,AUCc-t (AUC difference between control and treated animals),[17]; [20],17.3 (Log10 CFU/thigh)/hr
same,Max Kill (maximum decrease from initial infection level),[17]; [21],−0.02 Log10 CFU/thigh
same,AUCc-t (AUC difference between control and treated animals),[17]; [21],38.2 (Log10 CFU/thigh)/hr
same,MIC 50%,[6],2 µg/mL
same,MIC 90%,[6],4 µg/mL
same,MIC 50%,[7],0.12 µg/mL
same,MIC 90%,[7],0.12 µg/mL
same,MIC 50%,[8],0.06 µg/mL
same,MIC 90%,[8],0.12 µg/mL
same,fold more potent than teicoplanin and daptomycin,[18],two- to four
same,fold more potent than vancomycin,[18],four- to eight
same,MIC 50%,[18],0.03 µg/mL
same,MIC 90%,[18],0.06 µg/mL
same,MIC 50%,[9],0.06 µg/mL
same,MIC 90%,[9],0.25 µg/mL
same,MIC 50%,[10],0.03 µg/mL
same,MIC 90%,[10],0.06 µg/mL
same,MIC 50%,[11],0.06 µg/mL
same,MIC 90%,[11],0.12 µg/mL
CNC(CC(C)C)C(=O)NC1C(=O)NC(CC(N)=O)C(=O)NC2C(=O)NC3C(=O)NC(C(=O)NC(C(=O)NCCOCCOCCN(C)C)c4cc(O)cc(O)c4-c4cc3ccc4O)C(O)c3ccc(c(Cl)c3)Oc3cc2cc(c3OC2OC(CO)C(O)C(O)C2OC2CC(C)(NCc3ccc(-c4ccc(Cl)cc4)cc3)C(O)C(C)O2)Oc2ccc(cc2Cl)C1O (stereo not shown) [Compound 10],MIC 50%,[1],0.06 µg/mL
same,MIC 90%,[1],0.06 µg/mL
same,MIC 50%,[2],0.06 µg/mL
same,MIC 90%,[2],0.12 µg/mL
same,MIC 50%,[13],0.25 µg/mL
same,MIC 50%,[14],4 µg/mL
same,MIC 50%,[15],0.12 µg/mL
same,MIC 90%,[15],0.12 µg/mL
same,MIC 50%,[16],0.03 µg/mL
same,MIC 90%,[16],0.06 µg/mL
same,MIC 50%,[3],0.03 µg/mL
same,MIC 90%,[3],0.06 µg/mL
same,MIC 50%,[4],1 µg/mL
same,MIC 90%,[4],2 µg/mL
same,MIC 50%,[5],0.06 µg/mL
same,MIC 90%,[5],0.06 µg/mL
same,Max Kill (maximum decrease from initial infection level),[17]; [19],0.43 Log10 CFU/thigh
same,AUCc-t (AUC difference between control and treated animals),[17]; [19],10.7 (Log10 CFU/thigh)/hr
same,Max Kill (maximum decrease from initial infection level),[17]; [20],−0.06 Log10 CFU/thigh
same,AUCc-t (AUC difference between control and treated animals),[17]; [20],22.4 (Log10 CFU/thigh)/hr
same,Max Kill (maximum decrease from initial infection level),[17]; [21],−0.02 Log10 CFU/thigh
same,AUCc-t (AUC difference between control and treated animals),[17]; [21],25.6 (Log10 CFU/thigh)/hr
same,MIC 50%,[6],4 µg/mL
same,MIC 90%,[6],8 µg/mL
same,MIC 50%,[7],0.12 µg/mL
same,MIC 90%,[7],0.25 µg/mL
same,MIC 50%,[8],0.06 µg/mL
same,MIC 90%,[8],0.25 µg/mL
same,fold more potent than teicoplanin and daptomycin,[18],two- to four
same,fold more potent than vancomycin,[18],four- to eight
same,MIC 50%,[18],0.03 µg/mL
same,MIC 90%,[18],0.12 µg/mL
same,MIC 50%,[9],0.12 µg/mL
same,MIC 90%,[9],0.25 µg/mL
same,MIC 50%,[10],0.06 µg/mL
same,MIC 90%,[10],0.06 µg/mL
same,MIC 50%,[11],0.12 µg/mL
same,MIC 90%,[11],0.12 µg/mL
CNC(CC(C)C)C(=O)NC1C(=O)NC(CC(N)=O)C(=O)NC2C(=O)NC3C(=O)NC(C(=O)NC(C(=O)O)c4cc(O)c(CNCCOCCOCCN(C)C)c(O)c4-c4cc3ccc4O)C(O)c3ccc(c(Cl)c3)Oc3cc2cc(c3OC2OC(CO)C(O)C(O)C2OC2CC(C)(NCc3ccc(-c4ccc(Cl)cc4)cc3)C(O)C(C)O2)Oc2ccc(cc2Cl)C1O (stereo not shown) [Compound 12],MIC 50%,[1],0.12 µg/mL
same,MIC 90%,[1],0.12 µg/mL
same,MIC 50%,[2],0.12 µg/mL
same,MIC 90%,[2],0.12 µg/mL
same,MIC 50%,[13],0.25 µg/mL
same,MIC 50%,[14],8 µg/mL
same,MIC 50%,[15],0.12 µg/mL
same,MIC 90%,[15],0.12 µg/mL
same,MIC 50%,[16],0.06 µg/mL
same,MIC 90%,[16],0.06 µg/mL
same,MIC 50%,[3],0.06 µg/mL
same,MIC 90%,[3],0.12 µg/mL
same,MIC 50%,[4],2 µg/mL
same,MIC 90%,[4],4 µg/mL
same,MIC 50%,[5],0.12 µg/mL
same,MIC 90%,[5],0.12 µg/mL
same,Max Kill (maximum decrease from initial infection level),[17]; [19],1.1 Log10 CFU/thigh
same,AUCc-t (AUC difference between control and treated animals),[17]; [19],6.1 (Log10 CFU/thigh)/hr
same,Max Kill (maximum decrease from initial infection level),[17]; [20],−0.03 Log10 CFU/thigh
same,AUCc-t (AUC difference between control and treated animals),[17]; [20],17.6 (Log10 CFU/thigh)/hr
same,Max Kill (maximum decrease from initial infection level),[17]; [21],0.0005 Log10 CFU/thigh
same,AUCc-t (AUC difference between control and treated animals),[17]; [21],29.3 (Log10 CFU/thigh)/hr
same,MIC 50%,[6],8 µg/mL
same,MIC 90%,[6],16 µg/mL
same,MIC 50%,[7],0.25 µg/mL
same,MIC 90%,[7],0.25 µg/mL
same,MIC 50%,[8],0.12 µg/mL
same,MIC 90%,[8],0.5 µg/mL
same,MIC 50%,[18],0.06 µg/mL
same,MIC 90%,[18],0.06 µg/mL
same,MIC 50%,[9],0.25 µg/mL
same,MIC 90%,[9],0.5 µg/mL
same,MIC 50%,[10],0.12 µg/mL
same,MIC 90%,[10],0.12 µg/mL
same,MIC 50%,[11],0.25 µg/mL
same,MIC 90%,[11],0.25 µg/mL
